Experimental data: the supplement of paper PMC10307832

Legend:
Assay in all cases: relative viability (nuclei count vs DMSO), 5 days (fraction); higher = more cells survive
XMD8-85 + Olaparib = compound: CN1CCN(CC1)C2=CC(=C(C=C2)NC3=NC=C4C(=N3)N(C5=CC=CC=C5C(=O)N4C)C)OC [XMD8-85] + O=C(c1cc(Cc2n[nH]c(=O)c3ccccc23)ccc1F)N1CCN(C(=O)C2CC2)CC1 [Olaparib] (partner 8 µM)
Method in brief: (§1)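 Five library-drug doses in √10 steps were combined with a fixed anchor-drug dose, or a single drug was given alone, by pin tool to lung cancer cell lines in 1536-well plates the day after seeding. Nuclei were stained and counted after 5 days. Relative viability is the nuclei count in treated wells over that in vehicle wells, taken as the median of duplicate plates.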

4EGI-1 + Trametinib = compound: O=C(O)C(Cc1ccccc1[N+](=O)[O-])=NNc1nc(-c2ccc(Cl)c(Cl)c2)cs1 (mixture of isomers) [4EGI-1] + CC(=O)Nc1cccc(-n2c(=O)n(C3CC3)c(=O)c3c(Nc4ccc(I)cc4F)n(C)c(=O)c(C)c32)c1 [Trametinib] (partner 0.02 µM)
Method in brief: as §1

4EGI-1 + OSI-027 = compound: O=C(O)C(Cc1ccccc1[N+](=O)[O-])=NNc1nc(-c2ccc(Cl)c(Cl)c2)cs1 (mixture of isomers) [4EGI-1] + COc1cccc2cc(-c3nc([C@H]4CC[C@H](C(=O)O)CC4)n4ncnc(N)c34)[nH]c12 [OSI-027] (partner 0.5 µM)
Method in brief: as §1

4EGI-1 + Crizotinib = compound: O=C(O)C(Cc1ccccc1[N+](=O)[O-])=NNc1nc(-c2ccc(Cl)c(Cl)c2)cs1 (mixture of isomers) [4EGI-1] + C[C@@H](Oc1cc(-c2cnn(C3CCNCC3)c2)cnc1N)c1c(Cl)ccc(F)c1Cl [Crizotinib] (partner 1 µM)
Method in brief: as §1

| Cell Line | relative viability (XMD8-85 + Olaparib; first compound 0.08 µM) | relative viability (XMD8-85 + Olaparib; first compound 0.253 µM) | relative viability (XMD8-85 + Olaparib; first compound 0.8 µM) | relative viability (XMD8-85 + Olaparib; first compound 2.53 µM) | relative viability (XMD8-85 + Olaparib; first compound 8 µM) | relative viability (4EGI-1 + Trametinib; first compound 0.5 µM) | relative viability (4EGI-1 + Trametinib; first compound 1.581 µM) | relative viability (4EGI-1 + Trametinib; first compound 5 µM) | relative viability (4EGI-1 + Trametinib; first compound 15.81 µM) | relative viability (4EGI-1 + Trametinib; first compound 50 µM) | relative viability (4EGI-1 + OSI-027; first compound 0.5 µM) | relative viability (4EGI-1 + OSI-027; first compound 1.581 µM) | relative viability (4EGI-1 + OSI-027; first compound 5 µM) | relative viability (4EGI-1 + OSI-027; first compound 15.81 µM) | relative viability (4EGI-1 + OSI-027; first compound 50 µM) | relative viability (4EGI-1 + Crizotinib; first compound 0.5 µM) | relative viability (4EGI-1 + Crizotinib; first compound 1.581 µM) | relative viability (4EGI-1 + Crizotinib; first compound 5 µM) | relative viability (4EGI-1 + Crizotinib; first compound 15.81 µM) | relative viability (4EGI-1 + Crizotinib; first compound 50 µM) |
| --- | --- | --- | --- | --- | --- | --- | --- | --- | --- | --- | --- | --- | --- | --- | --- | --- | --- | --- | --- | --- |
| NCI-H1651 | 0.166 | 0.19 | 0.181 | 0.172 | 0.16 | 0.914 | 0.775 | 0.863 | 0.796 | 0.831 | 0.845 | 0.565 | 0.693 | 0.664 | 0.463 | 0.853 | 0.823 | 0.911 | 0.803 | 0.836 |
| SK-LU-1 | 0.482 | 0.509 | – | 0.417 | 0.391 | 0.5 | 0.527 | 0.538 | 0.474 | 0.326 | 0.381 | 0.36 | 0.356 | 0.34 | 0.174 | 0.891 | 1.05 | 0.943 | 0.688 | 0.334 |
| NCI-H2405 | 0.908 | 0.919 | 0.949 | 0.859 | 0.817 | 0.856 | – | 0.703 | 0.771 | 0.482 | 0.679 | 0.557 | 0.677 | 0.698 | 0.693 | 0.865 | 0.747 | 0.909 | 0.896 | 0.854 |
| HCC-15 | 0.745 | 0.67 | 0.7 | 0.699 | 0.64 | 0.405 | 0.378 | 0.392 | 0.375 | 0.281 | 0.692 | – | 0.734 | 0.557 | 0.19 | 0.831 | 0.893 | 0.858 | 0.776 | 0.598 |
| NCI-H1650 | 0.877 | 0.91 | 0.951 | 0.699 | 0.303 | 0.658 | – | 0.643 | 0.275 | 0.182 | 0.705 | – | 0.681 | 0.263 | 0.173 | 1.03 | – | 0.888 | 0.547 | 0.246 |
| COR-L23 | 0.369 | 0.319 | 0.421 | 0.302 | 0.236 | 0.898 | 0.336 | 0.628 | 0.415 | 0.16 | 0.899 | 0.459 | 0.848 | 0.542 | 0.138 | 0.687 | 0.412 | 0.64 | 0.521 | 0.141 |
| PC-3 [JPC-3] | 1.11 | 1.22 | 1.25 | 1.16 | 0.978 | 0.82 | – | 0.621 | 0.399 | 0.47 | 0.778 | 0.73 | 0.746 | – | 0.498 | 0.998 | 0.883 | 0.876 | – | 0.55 |
| A-427 | 0.751 | 0.781 | 0.864 | 0.785 | 0.57 | 0.891 | – | 0.774 | 0.742 | 0.384 | 0.604 | 0.386 | 0.534 | 0.44 | 0.152 | 1.02 | 0.728 | 0.791 | 0.822 | 0.424 |
| NCI-H1755 | 0.974 | 0.906 | 0.862 | 0.85 | 0.899 | 0.773 | 0.802 | 0.711 | 0.72 | 0.556 | 0.791 | 0.663 | 0.693 | 0.713 | 0.487 | 0.854 | 0.824 | 0.875 | 0.836 | 0.318 |
